Columns and labels:
MMP-14 = target: T1, MMP-14 (Homo sapiens, UniProt P50281); assay: In vitro MMP inhibition, Ki determination (fluorogenic substrate II); assay type: biochemical; conditions: value not in parenthesis; read-out: MMP-14 Ki
T1 construct: The catalytic domain enzyme was expressed in E. coli inclusion bodies, solubilized in urea; made in house
How it was run: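 Apparent Ki was fitted with Morrison's equation from reaction rates at a single low enzyme level. Enzyme was APMA- or trypsin-activated refolded MMP-14 catalytic domain, buffered at pH 7.5 with 10 mM CaCl2.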

MMP-2 = target: T2, MMP-2 (Homo sapiens, UniProt P08253); assay: as above; assay type: biochemical; conditions: value not in parenthesis; read-out: MMP-2 Ki
T2 construct: made in house; host or cells: MMP-2-transfected p2AHT2 cells
T2 sequence (P08253 110-660): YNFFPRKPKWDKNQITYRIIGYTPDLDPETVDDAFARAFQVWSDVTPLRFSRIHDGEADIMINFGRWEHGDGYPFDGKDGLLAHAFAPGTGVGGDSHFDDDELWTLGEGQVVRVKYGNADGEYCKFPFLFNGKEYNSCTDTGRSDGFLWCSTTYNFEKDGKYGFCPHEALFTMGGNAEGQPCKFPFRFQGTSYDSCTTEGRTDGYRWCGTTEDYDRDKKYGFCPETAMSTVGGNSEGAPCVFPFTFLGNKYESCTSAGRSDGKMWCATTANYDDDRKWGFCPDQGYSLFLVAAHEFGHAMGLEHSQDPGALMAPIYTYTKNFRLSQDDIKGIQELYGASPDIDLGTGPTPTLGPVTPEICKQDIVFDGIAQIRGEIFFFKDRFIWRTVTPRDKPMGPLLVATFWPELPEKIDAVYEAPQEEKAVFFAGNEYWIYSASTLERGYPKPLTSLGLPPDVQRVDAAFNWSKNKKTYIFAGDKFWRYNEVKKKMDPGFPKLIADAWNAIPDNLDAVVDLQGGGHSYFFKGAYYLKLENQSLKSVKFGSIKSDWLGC

| SMILES | Ki (MMP-14) [nM] | Ki (MMP-2) [nM] |
| --- | --- | --- |
| COCCN1CCC(C(=O)NO)(S(=O)(=O)N2CCN(c3ccc(CCCCC(C)C)cc3)CC2)CC1 [Example 191] | 6690 | 0.986 |
| COCCN1CCC(C(=O)NO)(S(=O)(=O)N2CCN(c3ccc(Br)cc3)CC2)CC1 [Example 201] | 120 | 0.521 |
| COCCN1CCC(C(=O)NO)(S(=O)(=O)N2CCN(c3nc4ccccc4o3)CC2)CC1 [Example 196] | 6840 | 25.1 |
| CCCNC(=O)c1ccc(N2CCN(S(=O)(=O)C3(C(=O)NO)CCN(CCOC)CC3)CC2)cc1 [Example 175] | > 10000 | 46.9 |
| CCCCc1nnc(N2CCN(S(=O)(=O)C3(C(=O)NO)CCOCC3)CC2)s1 [Example 214] | > 10000 | 102 |
| CCCC(C)Cc1ccc(N2CCN(S(=O)(=O)C3(C(=O)NO)CCN(CCOC)CC3)CC2)cc1 (stereo not drawn) [Example 189] | > 10000 | 9.78 |
| CCCCOc1ccc(N2CCN(S(=O)(=O)C3(C(=O)NO)CCN(C(=O)N4CCCC4)CC3)CC2)cc1 [Example 231] | 1530 | 1.32 |
| O=C(NO)C1(S(=O)(=O)N2CCN(c3cnc(CCC(F)(F)C(F)(F)F)cn3)CC2)CCOCC1 [Example 210] | 4470 | 1.04 |
| CCCCCc1ccc(N2CCN(S(=O)(=O)C3(C(=O)NO)CCN(C(=O)CC)CC3)CC2)cc1 [Example 206] | 110 | 0.63 |
| CCCCCc1ccc(N2CCN(S(=O)(=O)C3(C(=O)NO)CCOCC3)CC2)nc1 [Example 167] | 458 | 0.11 |
| O=C(NO)C1(S(=O)(=O)N2CCN(c3ccccn3)CC2)CCOCC1 [Example 169] | 84.9 | 1.09 |
| COCCN1CCC(C(=O)NO)(S(=O)(=O)N2CCN(c3ccc(OC(F)(F)F)cc3)CC2)CC1 [Example 202] | 623 | 0.432 |
| CCCCOc1ccc(N2CCN(S(=O)(=O)C3(C(=O)NO)CCN(C(=O)N(C(C)C)C(C)C)CC3)CC2)cc1 [Example 244] | 5310 | 1.57 |

Now from value to compound:

| Ki (MMP-14) [nM] | Ki (MMP-2) [nM] | SMILES |
| --- | --- | --- |
| 2760 | 1.47 | CCCCOc1ccc(N2CCN(S(=O)(=O)C3(C(=O)NO)CCN(c4nccs4)CC3)CC2)cc1 [Example 157] |
| 307 | 1.74 | COCCN1CCC(C(=O)NO)(S(=O)(=O)N2CCN(c3ccc(C)cc3)CC2)CC1 [Example 194] |
| 181 | 1.59 | COCCN1CCC(C(=O)NO)(S(=O)(=O)N2CCN(c3ccccn3)CC2)CC1 [Example 176] |
| 2590 | 7.88 | CCCc1cnc(N2CCN(S(=O)(=O)C3(C(=O)NO)CCN(CCOC)CC3)CC2)nc1 [Example 178] |
| > 10000 | 23.6 | CCCCOc1ccc(N2CCN(S(=O)(=O)C3(C(=O)NO)CCN(c4ccc(OC(F)(F)C(F)F)cc4)CC3)CC2)cc1 [Example 65] |
| 8880 | 28.6 | CCCCOc1ccc(N2CCN(S(=O)(=O)C3(C(=O)NO)CCN(CCOC)CC3)CC2)cn1 [Example 164] |
| 3210 | 2.5 | CCCCCc1cnc(N2CCN(S(=O)(=O)C3(C(=O)NO)CCOCC3)CC2)cn1 [Example 219] |
| > 10000 | 4.98 | CCCCOc1ccc(N2CCN(S(=O)(=O)C3(C(=O)NO)CCN(c4ccc(OC)cc4)CC3)CC2)cc1 [Example 249] |
| > 10000 | 2.57 | O=C(NO)C1(S(=O)(=O)N2CCN(c3ccc(COCC(F)(F)C(F)(F)F)cc3)CC2)CCOCC1 [Example 70] |
| 2880 | 3.16 | CCOCCSc1ccc(N2CCN(S(=O)(=O)C3(C(=O)NO)CCOCC3)CC2)cc1 [Example 234] |
| > 10000 | 3.79 | O=C(NO)C1(S(=O)(=O)N2CCN(c3cnc(CCCC(F)(F)F)cn3)CC2)CCOCC1 [Example 209] |

— patent US20050209278A1, “Piperidinyl- and piperazinyl-sulfonylmethyl hydroxamic acids and their use as protease inhibitors” (priority 2002, published 2005)
